These results are taken from ChEMBL document CHEMBL5620362 (Eur J Med Chem, 2023).

Structures are written as SMILES.

The target of assay [1] is T1, Nuclear receptor ROR-gamma (Homo sapiens, UniProt P51449).
T1 sequence (P51449 whole entry): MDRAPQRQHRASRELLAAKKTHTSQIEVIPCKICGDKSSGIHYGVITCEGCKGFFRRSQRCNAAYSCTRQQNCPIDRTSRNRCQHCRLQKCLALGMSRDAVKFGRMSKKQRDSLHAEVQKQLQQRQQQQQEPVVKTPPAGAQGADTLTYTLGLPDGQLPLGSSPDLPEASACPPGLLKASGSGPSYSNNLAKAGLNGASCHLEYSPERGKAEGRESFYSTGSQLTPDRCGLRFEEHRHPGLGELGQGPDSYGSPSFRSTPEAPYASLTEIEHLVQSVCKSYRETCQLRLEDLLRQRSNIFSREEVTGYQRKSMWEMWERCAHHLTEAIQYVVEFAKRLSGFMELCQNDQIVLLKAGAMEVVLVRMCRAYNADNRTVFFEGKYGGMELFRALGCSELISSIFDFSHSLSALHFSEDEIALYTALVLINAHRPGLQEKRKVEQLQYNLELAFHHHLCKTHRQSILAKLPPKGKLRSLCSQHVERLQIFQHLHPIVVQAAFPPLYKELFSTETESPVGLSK
Nature of the assay: Binding affinity to CM5 chip-immobilized recombinant ROR-gamma LBD (unknown origin) assessed as dissociation constant by SPR analysis.

Assay [2] relates to HPAF-II. The assay is described as follows: Antitumor activity against human HPAF-II cells measured after 72 hrs. The format is functional, cell-based.
Assay [3] relates to HPAF-II. The assay is described as follows: Induction of apoptosis in human HPAF-II cells assessed as necrotic cells at 1 uM incubated for 48 hrs by Annexin V-FITC/PI staining based flow cytometry (reference value: 8.09 %). It counts as functional.
For assay [4], the system named is HPAF-II. Nature of the assay: Induction of apoptosis in human HPAF-II cells assessed as late apoptotic cells at 1 uM incubated for 48 hrs by Annexin V-FITC/PI staining based flow cytometry (reference value: 1.28 %). It counts as functional.
In assay [5] the test system is HPAF-II. The assay is described as follows: Induction of apoptosis in human HPAF-II cells assessed as viable cells at 1 uM incubated for 48 hrs by Annexin V-FITC/PI staining based flow cytometry (reference value: 89.73 %). The settings on record: read-out: Activity. The format is functional.
Assay [6] deals with NCI-H23. Nature of the assay: Induction of apoptosis in human NCI-H23 cells assessed as necrotic cells at 10 uM incubated for 48 hrs by Annexin V-FITC/PI staining based flow cytometry (reference value: 0.78 %). It counts as functional.
In assay [7] the test system is NCI-H23. The assay is described as follows: Induction of apoptosis in human NCI-H23 cells assessed as viable cells at 10 uM incubated for 48 hrs by Annexin V-FITC/PI staining based flow cytometry (reference value: 92.16 %). The settings on record: read-out: Activity. It counts as functional.
Assay [8] has as its system NCI-H23. The assay is described as follows: Induction of apoptosis in human NCI-H23 cells assessed as late apoptotic cells at 10 uM incubated for 48 hrs by Annexin V-FITC/PI staining based flow cytometry (reference value: 2.89 %). The format is functional.
In assay [9] the test system is HPAF-II. Nature of the assay: Induction of apoptosis in human HPAF-II cells assessed as early apoptotic cells at 1 uM incubated for 48 hrs by Annexin V-FITC/PI staining based flow cytometry (reference value: 0.90 %). The format is functional.
Assay [10] concerns NCI-H23. Nature of the assay: Induction of apoptosis in human NCI-H23 cells assessed as early apoptotic cells at 10 uM incubated for 48 hrs by Annexin V-FITC/PI staining based flow cytometry (reference value: 4.17 %). The format is functional.

With `C=C(C)[C@@H]1CC[C@]2(C(=O)N[C@@H]3CCCN(C)C3)CC[C@]3(C)[C@H](CC[C@@H]4[C@@]5(C)CC[C@H](O)C(C)(C)[C@@H]5CC[C@]43C)[C@@H]12`, in [1], the Kd was found to be 340 nM. In the assay on HPAF-II [2], this molecule showed an IC50 of 300 nM.
Regarding `CN(C)CCCNC(=O)[C@]12CC[C@@H](C3(C)CC3)[C@@H]1[C@H]1CC[C@@H]3[C@@]4(C)CC[C@H](O)C(C)(C)[C@@H]4CC[C@@]3(C)[C@]1(C)CC2`, the Kd in [1] is 240 nM. In the assay with HPAF-II [2], this molecule yielded an IC50 of 120 nM.
Regarding `C=C(C)[C@@H]1CC[C@]2(C(=O)NC3CCCN(C)CC3)CC[C@]3(C)[C@H](CC[C@@H]4[C@@]5(C)CC[C@H](O)C(C)(C)[C@@H]5CC[C@]43C)[C@@H]12` (stereo partly drawn), the Kd in [1] was 250 nM. The molecule also showed an IC50 in the assay on HPAF-II [2] of 110 nM.
For the molecule `C=C(C)[C@@H]1CC[C@]2(C(=O)NCC(C)(C)CN(C)C)CC[C@]3(C)[C@H](CC[C@@H]4[C@@]5(C)CC[C@H](O)C(C)(C)[C@@H]5CC[C@]43C)[C@@H]12`, in assay [1], the Kd was 2900 nM. The molecule also came in with an IC50 with HPAF-II [2] of 440 nM.
Turning to `C=C(C)[C@@H]1CC[C@]2(C(=O)NCCCN(C)C)CC[C@]3(C)[C@H](CC[C@@H]4[C@@]5(C)C[C@H](O)C(C)(C)[C@@H]5CC[C@]43C)[C@@H]12`, the Kd in assay [1] amounted to 3060 nM. The same molecule yielded an IC50 in the assay with HPAF-II [2] of 2780 nM.
The matching figures for `C=C(C)[C@@H]1CC[C@]2(C(=O)NC3CCNCC3)CC[C@]3(C)[C@H](CC[C@@H]4[C@@]5(C)CC[C@H](O)C(C)(C)[C@@H]5CC[C@]43C)[C@@H]12`: 1960 nM and 1210 nM.
On to `C=C(C)[C@@H]1CC[C@]2(C(=O)N[C@H]3CCCN(C)C3)CC[C@]3(C)[C@H](CC[C@@H]4[C@@]5(C)CC[C@H](O)C(C)(C)[C@@H]5CC[C@]43C)[C@@H]12`, for which the Kd in assay [1] came out at 960 nM. In the assay with HPAF-II [2], this molecule gave an IC50 of 350 nM.
In the case of `C=C(C)[C@@H]1CC[C@]2(C(=O)NCCN(CC)CC)CC[C@]3(C)[C@H](CC[C@@H]4[C@@]5(C)CC[C@H](O)C(C)(C)[C@@H]5CC[C@]43C)[C@@H]12`, the dissociation constant (Kd) in [1] turned out to be 720 nM. Besides, inhibition in the assay with HPAF-II [2] was half-maximal at 120 nM (IC50).
For `C=C(C)[C@@H]1CC[C@]2(C(=O)NCCN3CCCC3)CC[C@]3(C)[C@H](CC[C@@H]4[C@@]5(C)CC[C@H](O)C(C)(C)[C@@H]5CC[C@]43C)[C@@H]12`, the Kd in [1] is 870 nM. Further, the midpoint of inhibition with HPAF-II [2], the IC50, lay at 230 nM.
For `C=C(C)[C@@H]1CC[C@]2(C(=O)NCCN3CCC(O)C3)CC[C@]3(C)[C@H](CC[C@@H]4[C@@]5(C)CC[C@H](O)C(C)(C)[C@@H]5CC[C@]43C)[C@@H]12` (stereo partly drawn), in assay [1], the Kd was found to be 290 nM. The molecule further registered a half-maximal inhibitory concentration (IC50) with HPAF-II [2] of 310 nM.
On to `C=C(C)[C@@H]1CC[C@]2(C(=O)NC[C@@H]3CCCN3C)CC[C@]3(C)[C@H](CC[C@@H]4[C@@]5(C)CC[C@H](O)C(C)(C)[C@@H]5CC[C@]43C)[C@@H]12`, for which the equilibrium dissociation constant (Kd) in [1] worked out at 660 nM. Besides, in the assay on HPAF-II [2], it took 320 nM to reach half-maximal inhibition (IC50).
The matching figures for `C=C(C)[C@@H]1CC[C@]2(C(=O)NCCCN(C)C)CC[C@]3(C)[C@H](CC[C@@H]4[C@@]5(C)CC[C@H](N)C(C)(C)[C@@H]5CC[C@]43C)[C@@H]12`: 4550 nM and 370 nM.
For `C=C(C)[C@@H]1CC[C@]2(C(=O)Nc3nccs3)CC[C@]3(C)[C@H](CC[C@@H]4[C@@]5(C)CC[C@H](O)C(C)(C)[C@@H]5CC[C@]43C)[C@@H]12` the same measures were 5460 nM and 1960 nM.
Consider `C=C(C)[C@@H]1CC[C@]2(C(=O)NCCN(C)CCN(C)C)CC[C@]3(C)[C@H](CC[C@@H]4[C@@]5(C)CC[C@H](O)C(C)(C)[C@@H]5CC[C@]43C)[C@@H]12`, for which the Kd in assay [1] was determined as 1880 nM. Moreover, in the assay with HPAF-II [2], half-maximal inhibition (IC50) required 380 nM.
As to `C=C(C)[C@@H]1CC[C@]2(C(=O)N[C@H]3CCN(C)C3)CC[C@]3(C)[C@H](CC[C@@H]4[C@@]5(C)CC[C@H](O)C(C)(C)[C@@H]5CC[C@]43C)[C@@H]12`, in assay [1], the Kd turned out to be 1870 nM. In addition, in the assay on HPAF-II [2], the IC50 was determined as 210 nM.
As to `C=C(C)[C@@H]1CC[C@]2(C(=O)NC[C@@H]3CCN(C)C3)CC[C@]3(C)[C@H](CC[C@@H]4[C@@]5(C)CC[C@H](O)C(C)(C)[C@@H]5CC[C@]43C)[C@@H]12`, 320 nM corresponded to half-maximal inhibition with HPAF-II [2] (IC50).
In the case of `C=C(C)[C@@H]1CC[C@]2(C(=O)N[C@@H]3CCN(C)C3)CC[C@]3(C)[C@H](CC[C@@H]4[C@@]5(C)CC[C@H](O)C(C)(C)[C@@H]5CC[C@]43C)[C@@H]12`, in assay [1], the Kd was 670 nM. In the assay on HPAF-II [2], this molecule registered an IC50 of 380 nM.
For `C=C1C[C@]2(C)[C@H]3CC[C@@H]4[C@H]5[C@H](C(=C)C)CC[C@]5(C(=O)NCCCN(C)C)CC[C@@]4(C)[C@]3(C)CC[C@H]2C(C)(C)C1=O`, the dissociation constant (Kd) in assay [1] was 6390 nM. Also, in the assay on HPAF-II [2], half-maximal inhibition (IC50) required 760 nM.
Turning to `C=C(C)[C@@H]1CC[C@]2(C(=O)NCc3cc[nH]n3)CC[C@]3(C)[C@H](CC[C@@H]4[C@@]5(C)CC[C@H](O)C(C)(C)[C@@H]5CC[C@]43C)[C@@H]12`, the Kd in assay [1] came out at 780 nM. In addition, 7030 nM corresponded to half-maximal inhibition in the assay with HPAF-II [2] (IC50).
With `O=S(=O)(c1ccccc1)N(CC(F)(F)F)c1ccc(C(O)(C(F)(F)F)C(F)(F)F)cc1` [T091317], the Activity is on record as 6.3% in the assay with HPAF-II [3]; 7.38% with HPAF-II [4]; 3.3% in the assay with NCI-H23 [6]; 3.82% in the assay on NCI-H23 [8]; 8.56% in the assay on HPAF-II [9]; 2.68% with NCI-H23 [10]. Moreover, the viability at 1 µM in the assay with HPAF-II [5] came out at 79.8%. For the same molecule, the viability at 10 µM with NCI-H23 [7] stood at 90.2%.
For `C=C(C)[C@@H]1CC[C@]2(C(=O)NC[C@H]3CCN(C)C3)CC[C@]3(C)[C@H](CC[C@@H]4[C@@]5(C)CC[C@H](O)C(C)(C)[C@@H]5CC[C@]43C)[C@@H]12`, the IC50 in the assay with HPAF-II [2] came to 360 nM.
For the molecule `C=C(C)[C@@H]1CC[C@]2(C(=O)NC[C@H]3CCCN3C)CC[C@]3(C)[C@H](CC[C@@H]4[C@@]5(C)CC[C@H](O)C(C)(C)[C@@H]5CC[C@]43C)[C@@H]12`, the Kd in assay [1] was found to be 420 nM. In the assay with HPAF-II [2], this molecule registered an IC50 of 350 nM.
For `C=C(C)[C@@H]1CC[C@]2(C(=O)NCCNc3ccncc3)CC[C@]3(C)[C@H](CC[C@@H]4[C@@]5(C)CC[C@H](O)C(C)(C)[C@@H]5CC[C@]43C)[C@@H]12` the same measures were 590 nM and 310 nM.
In the case of `C=C(C)[C@@H]1CC[C@]2(C(=O)NCc3cncs3)CC[C@]3(C)[C@H](CC[C@@H]4[C@@]5(C)CC[C@H](O)C(C)(C)[C@@H]5CC[C@]43C)[C@@H]12`, the Kd in [1] was 780 nM. The IC50 with HPAF-II [2] was 9300 nM.
With `C=C(C)[C@@H]1CC[C@]2(C(=O)NCCOCCN(C)C)CC[C@]3(C)[C@H](CC[C@@H]4[C@@]5(C)CC[C@H](O)C(C)(C)[C@@H]5CC[C@]43C)[C@@H]12`, the Kd in [1] worked out at 520 nM. For the same molecule, in the assay on HPAF-II [2], inhibition was half-maximal at 320 nM (IC50).
For the molecule `C=C(C)[C@@H]1CC[C@]2(C(=O)NCCN(CC)CCO)CC[C@]3(C)[C@H](CC[C@@H]4[C@@]5(C)CC[C@H](O)C(C)(C)[C@@H]5CC[C@]43C)[C@@H]12`, in assay [1], the Kd is 1110 nM. For the same molecule, the IC50 with HPAF-II [2] worked out at 220 nM.
Take `C=C(C)[C@@H]1CC[C@]2(C(=O)N[C@@H]3CN4CCC3CC4)CC[C@]3(C)[C@H](CC[C@@H]4[C@@]5(C)CC[C@H](O)C(C)(C)[C@@H]5CC[C@]43C)[C@@H]12`: the Kd in [1] was found to be 120 nM. For the same molecule, inhibition in the assay with HPAF-II [2] was half-maximal at 130 nM (IC50).
